According to US10085983B2, “Azabicyclo derivatives, process for preparation thereof and medical use thereof” (Shanghai Haiyan Pharmaceutical Technology Co., Ltd., priority 2014, dated 2018):

Key:
NIH3T3 cells = assay: Toxicity test on NIH3T3 cells by MTT assay; type: cell-based
Experimental: (§1) The steps of the MTT assay were carried out using methods well known to those skilled in the art, and all the reagents used in the methods are commercially available.
(§2) After the first wash, another 1.5 mL of trypsin/EDTA was added to digest the adherent cells until the cells detached. Then 3.5 mL of the culture medium was added to terminate the digestion. The digested cell suspension was transferred to a 15 mL centrifuge tube and centrifuged at 1300 rpm for 3 minutes. The supernatant was discarded and the cells were resuspended in fresh medium. The cells were then counted and diluted to the following concentrations: 27,800 cells per milliliter of H1975 cells, 33,300 cells per milliliter of A431 cells and NIH3T3 cells (purchased from the Cell Bank of the Type Culture Collection Committee, Chinese Academy of Sciences).
(§3) After the drug was added, the cells were incubated in an incubator for 72 hours. 10 μL of 5 mg/ml MTT (Sigma, M5655) solution was added to each well. The 96-well plate was then incubated in a 37° C. and 5% CO2 incubator for 4 h.
(§4) The plate was then centrifuged at 2000 rpm for 5 min. After the supernatant was removed, 150 μl of DMSO was added to each well and the plate was shaken in a shaker until all crystal violet was dissolved.

H1975 cells = assay: Cell growth inhibition by MTT assay, H1975 cells; type: cell-based; conditions: for IC50: MTT assay, 72 hours; for Selective inhibitory activity against cell growth [IC50 (A431 cell)/IC50 (H1975 cell)]: ratio of MTT IC50 values;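 as to all read-outs here: MTT read-out in 96-well plates after 72 h compound exposure of H1975 and A431 cells, with selectivity given as the A431 IC50 divided by the H1975 IC50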
Experimental: as §1, §2, §3, §4

[1] = molecular target: EGFR phosphorylation in A431 (EGFR wild-type) cells (Homo sapiens (Human), UniProt P00533); assay: Inhibition of EGFR phosphorylation in A431 cells (ELISA); type: cell-based; conditions: 1 h compound treatment, EGF stimulation, read-out: A431 cell (IC50/μM)
Experimental: (§5) In the following methods, the reagents used, the preparation methods of solutions, the cell treatment and the preparation steps of the lysis solution, as well as the ELISA assay steps, were carried out according to the instructions of R&D DYC3570, R&D DYC1095E and R&D DYC1095BE.
I. Reagents and Solutions
(§6) Cell lysis solution: Cell lysis buffer+10 μg/mL Aprotinin (Sigma)+10 μg/mL Leupeptin (Sigma), prepared on site.
(§7) Wash buffer: PBS buffer containing 0.05% (v/v) Tween-20.
(§8) Blocking solution: PBS buffer containing 1% (w/v) BSA.
3.1 A431 Cell Treatment and Testing Procedures
(1) A431 cells (purchased from the Cell Bank of the Type Culture Collection Committee, Chinese Academy of Sciences) were seeded in 96-well plates at a density of 1×10^4/well in 90 μl of DMEM medium containing 10% FBS and cultured at 37° C. in 5% CO2 overnight.
(2) The A431 cell culture medium was replaced with 90 μl of serum-free DMEM medium and the plate was cultured overnight.
(3) The compound to be tested was diluted according to the drug dilution method in MTT assay. 10 μL of the diluted compound or diluted DMSO was added to the corresponding wells of the cell culture plate, and the final concentration of DMSO was 0.5%. The plate was cultured at 37° C. in 5% CO2 for 1 hour. […] The cells without EGF and drug treatment were used as cell control, and the cells treated with EGF without drugs were used as EGF control.
(4) The medium was removed and then 100 μL of the cell lysis solution was added. The plate was sealed and placed in a refrigerator at −80° C. overnight.
The assay was conducted according to the instructions given in R&D DYC3570E.
(1) R&D capture antibody (DYC3570E) was diluted with PBS in the proportion of 1:180.
(§9) (2) The plate was washed 3 times with 360 μL of the wash buffer.
(3) 200 μL of the blocking solution was added and the plate was incubated at 25° C. with shaking for 2 hours.
(4) The plate was washed 3 times with 360 μL of wash buffer.
(§10) (5) 40 μL of cell lysis buffer and 60 μL of cell lysis solution were added and the plate was incubated at 25° C. with shaking for 2 hours.
(§11) (6) The plate was washed 3 times with 360 μL of the wash buffer.
(§12) (7) The detection antibody was diluted with the detection antibody diluent in the proportion specified in the instructions of the kit. 100 μL of the diluted antibody was added to each well and the plate was incubated at 25° C. with shaking in dark for 1 h.
(8) The plate was washed 3 times with 360 μL of the wash buffer.
(9) A reagent and B reagent in TMB substrate (R&D DY999) were mixed in 1:1. 100 μL of the mixture was added to each well and incubated in dark at 25° C. with shaking for 20 min.
(§13) (10) 50 μL of 2N H2SO4 was added to each well.
(11) The plate was read with a microplate reader (Thermo Multiskan K3). OD 450 values and OD570 values of the cell control, blank control, and drug treatment wells were measured. ODEGF, ODdrug and ODcell were obtained by subtracting the corresponding OD570 value from the OD 450 value of the same well.
3.3 Data Analysis Inhibition rate (%)=100%×(ODEGF−ODdrug)/(ODEGF−ODcell)

[2] = molecular target: EGFR phosphorylation in H1975 (EGFR T790M mutant) cells (Homo sapiens (Human), UniProt P00533, L858R/T790M); assay: Inhibition of EGFR phosphorylation in H1975 cells (ELISA); type: cell-based; conditions: for IC50: ELISA of EGFR phosphorylation, 1 h compound treatment, read-out: H1975 cell (IC50/μM); for Selective inhibitory activity against targets at the cell level [IC50 (A431 cell)/IC50 (H1975 cell)]: ratio of ELISA IC50 values;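 as to all read-outs here: Phospho-EGFR in cell lysates measured by capture-antibody ELISA with TMB substrate after compound exposure, cells given DMSO alone (0.5% final) serving as control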
Experimental: as §5, §6, §7, §8
(1) H1975 cells (purchased from the Cell Bank of the Type Culture Collection Committee, Chinese Academy of Sciences) were seeded into 96-well plates at a density of 1×10^4/well, each cell containing 90 μl of RPMI1640 medium with 10% (V/V) FBS, and cultured overnight at 37° C. in 5% (v/v) CO2.
(2) The compounds to be tested were diluted in accordance with the drug dilution method in the MTT assay. 10 μL of the diluted compound or diluted DMSO was added to the corresponding wells of the cell culture plate, and the final concentration of DMSO was 0.5% (V/V). The plate was cultured at 37° C. in 5% (v/v) CO2 for 1 h. The cell culture system treated with DMSO alone was used as cell control.
(3) The medium was removed and then 100 μL of cell lysis solution was added. The plate was sealed and placed in a refrigerator at −80° C. overnight. The cell lysis buffer was used as blank control.
The assay was conducted according to the instructions given in R&D DYC1095E or R&D DYC1095BE.
(1) R&D capture antibody ((DYC1095BE or DYC1095E)) was diluted with PBS in the proportion of 1:180.
as §9
(3) 300 μL of the blocking solution was added and the plate was incubated at 25° C. with shaking for 2 hours.
(4) The plate was washed 3 times with 360 μL of the wash buffer.
as §10, §11, §12
(8) The plate was washed 3 times with 360 μL of wash buffer.
(9) A reagent and B reagent in the TMB substrate (R&D DY999) were mixed in 1:1. 100 μL of the mixture was added to each well and incubated in dark at 25° C. with shaking for 20 min.
as §13
(11) The plate was read with a microplate reader (Thermo Multiskan K3). OD 450 values and OD570 values of the cell control, blank control, and drug treatment wells were measured. ODcell, ODblank and ODdrug treatment were obtained by subtracting the corresponding OD570 value from the OD 450 value of the same well.
2.3 Data Analysis Inhibition rate (%)=100%×(ODcell−ODdrug treatment)/(ODcell−ODblank)

[3] = molecular target: T790M/L858R double mutant EGFR kinase (Homo sapiens (Human), UniProt P00533, L858R/T790M); assay: z'-lyte assay of inhibitory activity on T790M/L858R double mutant EGFR kinase; type: biochemical; conditions: for Selective inhibitory activity against enzymes [IC50 (EGFR WT)/IC50 (T790M/L858R)]: ratio of enzyme IC50 values; for IC50: z'-lyte assay, 25 μM ATP
wild-type EGFR kinase = wild-type EGFR kinase (Homo sapiens (Human), UniProt P00533); conditions: read-out: EGFR WT (IC50/μM); z'-lyte assay, 10 μM ATP
Experimental: All reagents used in the following z′-lyte assay were purchased from Invitrogen.
The working concentrations of each component in 10 μL wild-type EGFR kinase reaction system were: 10 μM ATP, 0.8 ng/μL wild-type EGFR kinase, 2 μM Tyr04 substrate (Invitrogen, PV3193). The concentration of DMSO after addition of the compound to be tested was 2 vol %.
10 mM drug stock solution was dissolved at room temperature and gradiently diluted to a final concentration of 4-0.002 μM with 8 vol % DMSO solution. […] Then 2.5 μl of ATP was added to initiate the reaction. Wherein, ATP was replaced by the reaction buffer in well C1, no drug was added to well C2, and the phosphorylated substrate was added to well C3 according to the instructions. The mixture was allowed to react at 25° C. in a shaker in dark for 60 min. 5 μL of Development Reagent B (Invitrogen, diluted with TR-FRET dilution buffer) was added and allowed to react at room temperature in the shaker for 60 minutes.
The inhibition rate was calculated according to the following method (refer to the instructions of Invitrogen, PV3193):
1. ER=Coumarin Emission (450 nm)/Fluorescein Emission (520 nm)
The half-inhibitory concentration IC50 was obtained through fitting calculation by using XLFIT 5.0 software (IDBS, UK).

A431 cells = assay: Cell growth inhibition by MTT assay, A431 cells; type: cell-based
Experimental: as §1, §2, §3, §4

EGFR phosphorylation in A431 (EGFR wild-type) cells, sequence (P00533 25-1210): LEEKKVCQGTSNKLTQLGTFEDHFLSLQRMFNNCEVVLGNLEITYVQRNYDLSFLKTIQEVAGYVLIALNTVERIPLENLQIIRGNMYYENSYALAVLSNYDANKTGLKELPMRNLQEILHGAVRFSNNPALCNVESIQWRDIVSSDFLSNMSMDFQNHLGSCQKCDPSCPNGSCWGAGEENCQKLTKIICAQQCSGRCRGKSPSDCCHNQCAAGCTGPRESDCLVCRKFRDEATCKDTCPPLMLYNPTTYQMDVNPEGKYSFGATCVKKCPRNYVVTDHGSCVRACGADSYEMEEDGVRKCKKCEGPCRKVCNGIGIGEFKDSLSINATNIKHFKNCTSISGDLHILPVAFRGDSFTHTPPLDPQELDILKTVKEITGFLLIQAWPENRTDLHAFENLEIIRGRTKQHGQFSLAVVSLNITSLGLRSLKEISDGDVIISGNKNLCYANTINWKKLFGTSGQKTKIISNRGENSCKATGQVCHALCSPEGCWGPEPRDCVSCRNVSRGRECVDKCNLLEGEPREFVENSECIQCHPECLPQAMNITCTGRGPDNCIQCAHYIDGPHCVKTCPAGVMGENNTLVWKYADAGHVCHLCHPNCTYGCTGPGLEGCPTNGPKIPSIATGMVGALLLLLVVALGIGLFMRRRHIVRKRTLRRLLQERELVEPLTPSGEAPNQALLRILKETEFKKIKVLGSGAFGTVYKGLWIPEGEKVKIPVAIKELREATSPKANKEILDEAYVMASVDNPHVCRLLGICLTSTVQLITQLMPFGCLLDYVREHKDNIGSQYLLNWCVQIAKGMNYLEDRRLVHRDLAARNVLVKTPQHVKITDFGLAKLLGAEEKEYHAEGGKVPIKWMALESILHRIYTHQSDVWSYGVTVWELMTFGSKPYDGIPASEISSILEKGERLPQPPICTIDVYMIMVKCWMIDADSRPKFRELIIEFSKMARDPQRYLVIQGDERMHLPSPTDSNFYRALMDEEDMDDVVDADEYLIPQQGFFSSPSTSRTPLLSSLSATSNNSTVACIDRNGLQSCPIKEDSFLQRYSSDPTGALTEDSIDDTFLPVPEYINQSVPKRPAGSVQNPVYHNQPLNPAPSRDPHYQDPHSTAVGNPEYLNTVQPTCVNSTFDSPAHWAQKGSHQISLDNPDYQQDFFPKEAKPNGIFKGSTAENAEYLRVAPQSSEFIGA
wild-type EGFR kinase, sequence (P00533 25-1210): as above
T790M/L858R double mutant EGFR kinase, sequence (P00533 25-1210 T790M/L858R): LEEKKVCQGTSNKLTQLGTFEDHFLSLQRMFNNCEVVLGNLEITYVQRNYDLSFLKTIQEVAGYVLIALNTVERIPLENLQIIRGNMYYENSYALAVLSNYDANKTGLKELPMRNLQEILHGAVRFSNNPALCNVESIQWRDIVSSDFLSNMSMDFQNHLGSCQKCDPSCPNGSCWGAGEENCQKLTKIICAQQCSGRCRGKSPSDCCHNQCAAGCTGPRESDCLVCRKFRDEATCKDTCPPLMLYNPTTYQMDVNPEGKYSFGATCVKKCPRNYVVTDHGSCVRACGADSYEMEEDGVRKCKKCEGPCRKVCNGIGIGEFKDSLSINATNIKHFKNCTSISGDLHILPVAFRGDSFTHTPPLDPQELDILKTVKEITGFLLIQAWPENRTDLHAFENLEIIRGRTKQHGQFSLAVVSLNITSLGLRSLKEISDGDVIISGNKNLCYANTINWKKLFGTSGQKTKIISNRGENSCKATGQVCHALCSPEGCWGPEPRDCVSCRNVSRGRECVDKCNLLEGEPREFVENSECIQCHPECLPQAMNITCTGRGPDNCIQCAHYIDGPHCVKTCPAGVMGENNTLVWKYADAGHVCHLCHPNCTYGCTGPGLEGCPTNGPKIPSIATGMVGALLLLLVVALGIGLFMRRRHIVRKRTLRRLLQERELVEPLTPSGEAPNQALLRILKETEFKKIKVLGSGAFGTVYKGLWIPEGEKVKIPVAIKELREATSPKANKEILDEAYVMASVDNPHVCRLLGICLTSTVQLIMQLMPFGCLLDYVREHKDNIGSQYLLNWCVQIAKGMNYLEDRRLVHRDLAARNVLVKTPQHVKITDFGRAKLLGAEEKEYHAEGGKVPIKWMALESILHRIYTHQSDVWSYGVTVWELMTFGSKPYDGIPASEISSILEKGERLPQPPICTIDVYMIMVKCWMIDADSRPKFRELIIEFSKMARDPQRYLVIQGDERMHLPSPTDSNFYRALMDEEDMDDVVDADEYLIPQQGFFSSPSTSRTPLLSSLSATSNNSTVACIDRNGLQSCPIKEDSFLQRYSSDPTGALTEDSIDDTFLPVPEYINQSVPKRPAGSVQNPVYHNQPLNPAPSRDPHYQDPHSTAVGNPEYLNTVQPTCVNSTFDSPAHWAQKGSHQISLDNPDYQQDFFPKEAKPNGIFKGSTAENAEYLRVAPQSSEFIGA
EGFR phosphorylation in H1975 (EGFR T790M mutant) cells, sequence (P00533 25-1210 T790M/L858R): as above

IC50 (H1975 cells; Homo sapiens, NCI-H1975) | IC50 (A431 cells; Homo sapiens, A-431, 72 hours) | Compound | IC50 (NIH3T3 cells; Mus musculus, NIH3T3, 72 hours) | IC50 [1] | IC50 (NIH3T3 cells; 72 hours) | IC50 [2] | Selective inhibitory activity against targets at the cell level [IC50 (A431 cell)/IC50 (H1975 cell)] [2] | Selective inhibitory activity against enzymes [IC50 (EGFR WT)/IC50 (T790M/L858R)] [3] | IC50 [3] | IC50 (wild-type EGFR kinase) | IC50 (H1975 cells) | Selective inhibitory activity against cell growth [IC50 (A431 cell)/IC50 (H1975 cell)] (H1975 cells) | IC50 (A431 cells; 72 hours)
 |  | C=CC(=O)Nc1cc(Nc2ncc3ccc(-c4cnn(C)c4)n3n2)c(OC)cc1N(C)CCN(C)C [Compound J-1, N-(2-((2-(dimethylamino)ethyl)(methyl)amino)-4-methoxy-5-(7-(1-methyl-1H-pyrazol-4-yl)pyrrolo[1,2-f][1,2,4]triazin-2-ylamino)phenyl)acrylamide] |  | 0.112 µM | 4.83 µM | 0.012 µM | 9.3 | 4 | 0.001 µM | 0.004 µM | < 0.00457 µM | 71.6 | 0.327 µM
 |  | C=CC(=O)Nc1cc(Nc2ncc3ccc(-c4cnn(C)c4)n3n2)c(OC)cc1N1CCC(N(C)C)CC1 [Compound J-2, N-(2-(4-(dimethylamino)piperidin-1-yl)-4-methoxy-5-(7-(1-methyl-1H-pyrazol-4-yl)pyrrolo[1,2-f][11,2,4]triazin-2-ylamino)phenyl)acrylamide] |  | 0.303 µM | 5.46 µM | 0.025 µM | 12.1 | 11.5 | 0.002 µM | 0.023 µM | 0.011 µM | 36.6 | 0.403 µM
 |  | C=CC(=O)Nc1cc(Nc2ncc3ccc(-c4cnn(C)c4)n3n2)c(OC)cc1OCCN(C)C [Compound J-3, N-(2-(2-(dimethylamino)ethoxyl)-4-methoxy-5-(7-(1-methyl-1H-pyrazol-4-yl)pyrrolo[1,2-f][1,2,4]triazin-2-ylamino)phenyl)acrylamide] |  | 0.093 µM | 3.91 µM | 0.001 µM | 93 | 10 | 0.001 µM | 0.01 µM | 0.008 µM | 21 | 0.168 µM
 |  | C=CC(=O)Nc1cc(Nc2ncc3ccc(-c4cnn(C)c4)n3n2)c(OC)cc1N1CCN(C)CC1 [Compound J-4, N-(4-methoxy-5-(7-(1-methyl-1H-pyrazol-4-yl)pyrrolo[1,2-f][1,2,4]triazin-2-ylamino)-2-(4-methyl-1-yl)phenyl)acrylamide] |  | 1.8 µM | 3.65 µM | 0.004 µM | 450 | 17.5 | 0.002 µM | 0.035 µM | 0.014 µM | 32.9 | 0.461 µM
 |  | C=CC(=O)Nc1cc(Nc2ncc3ccc(C4=CCCCC4)n3n2)c(OC)cc1N(C)CCN(C)C [Compound J-5, N-(5(7-cyclohexenyl-pyrrolo[1,2-f][1,2,4]triazin-2-ylamino)-2-((2-(dimethylamino)ethyl)(methyl)amino)-4-methoxyphenyl)acrylamide] |  | 0.208 µM | 2.82 µM | 0.106 µM | 2 | 3 | 0.003 µM | 0.009 µM | 0.023 µM | 15.4 | 0.354 µM
 |  | C=CC(=O)Nc1cc(Nc2ncc3ccc(-c4cnc5c(ccn5C)c4)n3n2)c(OC)cc1N(C)CCN(C)C [Compound J-7, N-(2-((2-(dimethylamino)ethyl)(methyl)amino)-4-methoxy-5-(7-(1-methyl-1H-pyrrolo[2,3-b]pyridin-5-yl)pyrrolo[1,2-f][1,2,4]triazin-2-ylamino)phenyl)acrylamide] |  |  | 3.38 µM |  |  | 2.5 | 0.002 µM | 0.005 µM | 0.01 µM | 23.1 | 0.231 µM
 |  | C=CC(=O)Nc1cc(Nc2ncc3ccc(C4CC4)n3n2)c(OC)cc1N(C)CCN(C)C [Compound J-8, N-(5(7-cyclopropylpyrrolo[1,2-f][1,2,4]triazin-2-ylamino)-2-((2-(dimethylamino)ethyl)(methyl)amino)-4-methoxyphenyl)acrylamide] |  | 0.495 µM |  | 0.163 µM | 3 | 56 | 0.002 µM | 0.112 µM | 0.097 µM | 32.9 | 3.19 µM
 |  | C=CC(=O)Nc1cc(Nc2ncc3ccc(-c4cnc5ccccc5c4)n3n2)c(OC)cc1N(C)CCN(C)C [Compound J-10, N-(2-((2-(dimethylamino)ethyl)(methyl)amino)-4-methoxy-5-(7-(quinolin-3-yl)pyrrolo[1,2-f][1,2,4]triazin-2-ylamino)phenyl)acrylamide] |  |  | 3.27 µM |  |  | 3 | 0.001 µM | 0.003 µM | 0.009 µM | 16.3 | 0.147 µM
 |  | C=CC(=O)Nc1cc(Nc2ncc3ccc(C)n3n2)c(OC)cc1N1CCC(N(C)C)CC1 [Compound J-14, N-(2-(4-(dimethylamino)piperidin-1-yl)-4-methoxy-5-(7-methylpyrrolo[1,2-f][1,2,4]triazin-2-ylamino)phenyl)acrylamide] |  |  | 7.77 µM |  |  |  |  |  | 0.126 µM |  | 3.56 µM
 |  | C=CC(=O)Nc1cc(Nc2ncc3ccc(C4CC4)n3n2)c(OC)cc1N1CCC(N(C)C)CC1 [Compound J-15, N-(5(7-cyclopropylpyrrolo[1,2-f][1,2,4]triazin-2-ylamino)-2-(4-(dimethylamino)piperidin-1-yl)-4-methoxyphenyl)acrylamide] |  |  |  |  |  | 3.8 | 0.262 µM | > 1 µM |  |  | 
0.388 µM | 1.15 µM | C=CC(=O)Nc1cc(Nc2cn3c(-c4ccn(C)c4)cnc3cn2)c(OC)cc1N(C)CCN(C)C [Compound J-16, N-(2-((2-(dimethylamino)ethyl)(methyl)amino)-4-methoxy-5-(3(1-methyl-1H-pyrrol-3-yl)imidazo[1,2-a]pyrazin-6-ylamino)phenyl)acrylamide] | > 10 µM | 0.211 µM |  | 0.171 µM | 1.2 |  |  |  |  | 3 | 
0.424 µM | 2.95 µM | C=CC(=O)Nc1cc(Nc2cn3c(-c4cccnc4)cnc3cn2)c(OC)cc1N(C)CCN(C)C [Compound J-17, N-(2-((2-(dimethylamino)ethyl)(methyl)amino)-4-methoxy-5-(3(pyridin-3-yl)imidazo[1,2-a]pyrazin-6-ylamino)phenyl)acrylamide] | > 10 µM | 1.16 µM |  | 0.734 µM | 1.6 |  |  |  |  | 7 | 
 |  | C=CC(=O)Nc1cc(Nc2cn3c(-c4cnn(C)c4)cnc3cn2)c(OC)cc1N(C)CCN(C)C [Compound J-18, N-(2-((2-(dimethylamino)ethyl)(methyl)amino)-4-methoxy-5-(3(-methyl-1H-pyrazol-4-yl)imidazo[1,2-α]pyrazin-6-ylamino)phenyl)acrylamide] |  |  | > 10 µM |  |  |  |  |  | 0.251 µM | 6.2 | 1.56 µM
 |  | C=CC(=O)Nc1cc(Nc2cn3c(-c4cnn(C)c4)cnc3cn2)c(OC)cc1N1CCC(N(C)C)CC1 [Compound J-19, N-(2-(4-(dimethylamino)piperidin-1-yl)-4-methoxy-5-(3(1-methyl-1H-pyrazol-4-yl)imidazo[1,2-α]pyrazinyl 6-amino)phenyl)acrylamide] |  | 0.327 µM | > 10 µM | 0.289 µM | 1.13 |  |  |  | 0.243 µM | 5 | 1.21 µM
 |  | C=CC(=O)Nc1cc(Nc2ncc3c(C)cc(-c4cnn(C)c4)n3n2)c(OC)cc1N(C)CCN(C)C [Compound J-20, N-(2-((2-(dimethylamino)ethyl)(methyl)amino)-4-methoxy-5-(5-methyl-7-(1-methyl-1H-pyrazol-4-yl)pyrrolo[1,2-F][1,2,4]triazin-2-ylamino)phenyl)acrylamide] |  |  |  |  |  | 24.5 | 0.012 µM | 0.294 µM |  |  | 
 |  | C=CC(=O)Nc1cc(Nc2ncc3c(C)cc(-c4cnn(C)c4)n3n2)c(OC)cc1N1CCC(N(C)C)CC1 [Compound J-21, N-(2-(4-(dimethylamino)piperidin-1-yl)-4-methoxy-5-(5-methyl-7-(1-methyl-1H-pyrazol-4-yl)pyrrolo[1,2-F][1,2,4]triazin-2-ylamino)phenyl)acrylamide] |  |  |  |  |  | 3.4 | 0.294 µM | > 1 µM |  |  | 

Compound | IC50 (H1975 cells; Homo sapiens, NCI-H1975) | IC50 (A431 cells; Homo sapiens, A-431, 72 hours) | IC50 (NIH3T3 cells; Mus musculus, NIH3T3, 72 hours) | IC50 [1] | IC50 (NIH3T3 cells; 72 hours) | IC50 [2] | Selective inhibitory activity against targets at the cell level [IC50 (A431 cell)/IC50 (H1975 cell)] [2] | Selective inhibitory activity against enzymes [IC50 (EGFR WT)/IC50 (T790M/L858R)] [3] | IC50 [3] | IC50 (wild-type EGFR kinase) | IC50 (H1975 cells) | Selective inhibitory activity against cell growth [IC50 (A431 cell)/IC50 (H1975 cell)] (H1975 cells) | IC50 (A431 cells; 72 hours)
CN(C)C/C=C/C(=O)Nc1cc2c(Nc3ccc(F)c(Cl)c3)ncnc2cc1O[C@H]1CCOC1 [BIBW2992, alfatinib, reference compound] | 0.088 µM |  | 2.75 µM |  |  |  |  |  |  |  |  |  | 
